The record followed here is ChEMBL document CHEMBL1147499, “Chain-branched 1,3-dibenzylthioureas as vanilloid receptor 1 antagonists” (Bioorg Med Chem Lett, 2004).

The species named for experiment [1] is Rattus norvegicus. The experiment in a line: Inhibitory concentration of compound against 45 [Ca2+] influx in neonatal rat cultured spinal sensory neurons. In kind it is functional.
Experiment [2] is filed under the species Rattus norvegicus. As to the kind of experiment: Effective concentration of compound to induce 45 [Ca2+] influx in neonatal rat cultured spinal sensory neurons. Type of experiment: functional.

SMILES strings stand for the structures.

As usually defined, the IC50 is the concentration that gives 50% inhibition. Usually EC50 stands for the concentration that produces a half-maximal response. In the experiment listed under Rattus norvegicus [1], `C[C@@H](/N=C(\S)NCc1ccc(C(C)(C)C)cc1)c1ccc(N)cc1` showed an IC50 of 3.3 µM. Moreover, the EC50 in the experiment filed under Rattus norvegicus [2] was more than 100 µM.

The compound `Oc1cc2c(cc1O)CN(C(=S)NCCc1ccc(Cl)cc1)CCC2` [CAPSAZEPINE] displayed an EC50 in the experiment listed under Rattus norvegicus [2] of more than 100 µM.

The compound `C[C@@H](/N=C(\S)NCc1ccc(C(C)(C)C)cc1)c1ccccc1` gave an IC50 in the experiment filed under Rattus norvegicus [1] of 4.96 µM. For the same compound, in the experiment listed under Rattus norvegicus [2], the EC50 is more than 100 µM.

`C[C@@H](NC(=S)NCc1ccc(C(C)(C)C)cc1)c1ccc(NS(C)(=O)=O)cc1`: 0.05 µM corresponded to half-maximal inhibition in the experiment filed under Rattus norvegicus [1] (IC50). In the experiment filed under Rattus norvegicus [2], this compound gave an EC50 of more than 100 µM.

In turn, `C[C@H](/N=C(\S)NCc1ccc(C(C)(C)C)cc1)c1ccccc1` yielded an IC50 in the experiment filed under Rattus norvegicus [1] of 25.5 µM. The same compound registered an EC50 in the experiment listed under Rattus norvegicus [2] of more than 100 µM.

Take `CC(=O)Nc1ccc([C@@H](C)/N=C(\S)NCc2ccc(C(C)(C)C)cc2)cc1`: in the experiment listed under Rattus norvegicus [1], half-maximal inhibition (IC50) was put at 3.6 µM. Besides, in the experiment filed under Rattus norvegicus [2], the EC50 was more than 100 µM.

Regarding `C[C@H](/N=C(\S)NCc1ccc(C(C)(C)C)cc1)c1ccc([N+](=O)[O-])cc1`, the IC50 in the experiment listed under Rattus norvegicus [1] came out at 14.7 µM. Besides, in the experiment filed under Rattus norvegicus [2], the EC50 is more than 100 µM.

Take `CC[C@@H](/N=C(\S)NCc1ccc(C(C)(C)C)cc1)c1ccc(NS(C)(=O)=O)cc1`: in the experiment filed under Rattus norvegicus [1], 0.05 µM corresponded to half-maximal inhibition (IC50). This compound returned an EC50 in the experiment filed under Rattus norvegicus [2] of more than 100 µM.

On to `CCC(/N=C(\S)NCc1ccc(C(C)(C)C)cc1)c1ccc(NS(C)(=O)=O)cc1` (centres undefined), for which, in the experiment filed under Rattus norvegicus [1], inhibition was half-maximal at 0.36 µM (IC50). This compound also gave an EC50 in the experiment filed under Rattus norvegicus [2] of more than 100 µM.

In the experiment filed under Rattus norvegicus [1], `CCCC(/N=C(\S)NCc1ccc(C(C)(C)C)cc1)c1ccc(NS(C)(=O)=O)cc1` (centres undefined) had an IC50 of 1.49 µM. Further, in the experiment listed under Rattus norvegicus [2], the EC50 was more than 100 µM.

The compound `CC(C)(C)c1ccc(CNC(=S)NCc2ccc(NS(C)(=O)=O)cc2)cc1` registered an EC50 in the experiment listed under Rattus norvegicus [2] of more than 100 µM.

The compound `CC(C)C(/N=C(\S)NCc1ccc(C(C)(C)C)cc1)c1ccc(NS(C)(=O)=O)cc1` (centres undefined) came in with an IC50 in the experiment listed under Rattus norvegicus [1] of 3.24 µM. In addition, the EC50 in the experiment filed under Rattus norvegicus [2] was more than 100 µM.

`C[C@@H](/N=C(\S)NCc1ccc(C(C)(C)C)cc1)c1ccc([N+](=O)[O-])cc1` returned an IC50 in the experiment filed under Rattus norvegicus [1] of 0.58 µM. Moreover, in the experiment filed under Rattus norvegicus [2], the EC50 was more than 100 µM.

For `CC(/N=C(\S)NCc1ccc(C(C)(C)C)cc1)c1ccc(NS(C)(=O)=O)cc1` (centres undefined), the IC50 in the experiment filed under Rattus norvegicus [1] came to 0.15 µM. Further, the EC50 in the experiment filed under Rattus norvegicus [2] is more than 100 µM.

In the case of `Cc1ccc(C(C)/N=C(\S)NCc2ccc(C(C)(C)C)cc2)cc1` (centres undefined), in the experiment filed under Rattus norvegicus [1], the IC50 was determined as 0.4 µM. This compound also yielded an EC50 in the experiment filed under Rattus norvegicus [2] of more than 100 µM.

Take `C[C@H](/N=C(\S)NCc1ccc(C(C)(C)C)cc1)c1ccc(NS(C)(=O)=O)cc1`: inhibition in the experiment listed under Rattus norvegicus [1] was half-maximal at 1.47 µM (IC50). In the experiment listed under Rattus norvegicus [2], the EC50 is more than 100 µM.

As to `C[C@@H](/N=C(\S)NCc1ccc(C(C)(C)C)cc1)c1ccc(C(C)(C)C)cc1`, the midpoint of inhibition in the experiment listed under Rattus norvegicus [1], the IC50, lay at 3.49 µM. Also, the EC50 in the experiment listed under Rattus norvegicus [2] is more than 100 µM.

On to `CC(C)(C)c1ccc(C/N=C(\S)NC(c2ccccc2)c2ccc(NS(C)(=O)=O)cc2)cc1` (centres undefined), for which the IC50 in the experiment filed under Rattus norvegicus [1] came out at 16.7 µM. The compound further showed an EC50 in the experiment listed under Rattus norvegicus [2] of more than 100 µM.
